Reference: publication PMC7013932, “Disulfide-Linked Peptides for Blocking BTLA/HVEM Binding” (International Journal of Molecular Sciences, 2020)
Positions of bridges follow the written chain, without caps; N, C: chain ends. Residues, ends and D or L forms follow the SMILES beside them.

Legend:
BTLA protein = molecular target: T1, BTLA protein (Homo sapiens, UniProt Q7Z6A9); test: SPR analysis of BTLA protein binding to immobilized HVEM (14–39) peptide
T1 construct: purchased Novoprotein C563
Experimental: To analyze the binding properties between BTLA and the HVEM (14–39) peptide, we performed the affinity measurements using SPR. Thus, the peptide extended by five glycine residues at the N-terminus and biotin was first immobilized on a streptavidin matrix-coated sensor chip. The BTLA protein was then injected at different concentrations (0, 1, 3, 5, 10, and 15 µM). […] Moreover, the SPR results reveal that the peptide binds approximately 8 times slower (k1 = 76400), and dissociates 36 times slower (k−1 = 0.00332) than does the HVEM protein (k1 = 620000 and k−1 = 0.12), which agrees with the theoretical results of simulations with crystal-based structure and NMR-based structure of the peptide (Table 1).
Figure 6 SPR analysis of the BTLA protein binding to the HVEM (14–39) peptide. Sensorgrams show the results of SPR analysis conducted on the binding of the indicated concentrations of BTLA protein (C = 0, 1, 3, 5, 10, and 15 μM) in HBS-EP buffer.
Recombinant human BTLA protein was purchased from Novoprotein (company product code: C563). Recombinant human BTLA-Fc, HVEM-Fc and anti-human BTLA (#7.1)-blocking mAb were a generous gift from Prof. D. Olive (Inserm U1068/CNRS U7258, Marseille, France). Anti-HVEM mAb was biotinylated according to the manufacturer’s instructions (Biotin Labeling Kit-NH2, Abnova, #KA0003).
Standard SPR analyses were performed using a Biacore T200 (GE Healthcare) instrument essentially as described in the manufacturer’s manual. BTLA protein binding was studied using the HVEM(14–39) peptide elongated by five glycine residues at the N-terminus and immobilized on a streptavidin matrix-coated Sensor Chip SA (GE Healthcare). The peptide was immobilized on the sensor surface to yield a final value of ~1100 RU. HBS-EP (150 mM NaCl, 10 mM HEPES pH 7.4, 3 mM EDTA, 0.05% Surfactant P20) was used as the running buffer. In all the experiments, the buffer flow was set to 30 µL/min, with all injections at a volume of 120 µL. The sensorchip surface was regenerated with 0.5 M NaCl and 10 mM glycine. The data obtained were analyzed using Biacore T200 Evaluation Software 3.1 (Biacore, GE Healthcare, USA). The results are presented as sensorgrams obtained after subtraction of the background response signal from control experiments with buffer injections.

[1] = tested on: peripheral blood mononuclear cells (PBMC); format: cell-based, human; settings: PBMC from 3 healthy donors; peptide 0.1 and 5 mg/ml; 6 and 24 h, 37 °C; trypan blue counting and DAPI flow cytometry
Experimental: (§1) Then, we measured the cell death by counting the cells using trypan blue and by flow cytometry using 4′,6-diamidino-2-phenylindole dihydrochloride (DAPI).
Blood samples were also collected from healthy volunteers through the local Swiss blood bank. Fresh peripheral blood mononuclear cells were purified by density gradient centrifugation (Isopaque-Ficoll) within 2 h after blood sampling. Cells were cryopreserved in RPMI medium 1640 supplemented with 40% FCS and 10% DMSO.
Then, 2 × 10^4 total PBMC per well (96-well plate) was cultured with or without the HVEM (14–39) peptide at 5 or 0.1 mg/mL in RPMI 1640 supplemented with 10% FCS, 1% penicillin-streptomycin, and 25 mM HEPES. After 6 and 24 h at 37 °C, cells were harvested counted with Trypan blue exclusion. Cells were then labeled with DAPI and analyzed by flow cytometry to determine the percentage of cell death. […]
medium at time points (from the bottom) = 0h, 2h, 3h, 6h and 24h (gradient 5-100%B in 60 […]
Figure S6. 293T cells expressing human BTLA were incubated with different concentrations (0.1, 1 and 5 mg/ml) of peptide HVEM(14-39) prior labeling with rhHVEM-Fc and AF647-conjugated anti-human IgG antibody.
Fig. S7. Cytotoxic assay. PBMC from 3 healthy donors were incubated with HVEM(14-39) peptide at 0, 0.1 and 5 mg/ml in culture medium for 6 and 24h. Cells were subsequently counted and labelled with a dead cell marker. […]

293T cells = test: Toxicity on 293T cells (data not shown); format: cell-based, human; settings: 5 mg/mL
Excerpt: as §1

[2] = molecular target: T2, BTLA/HVEM binding on 293T cells expressing human BTLA (Homo sapiens, UniProt Q7Z6A9); test: BTLA/HVEM interaction cell line assay (HVEM-Fc binding to 293T cells expressing BTLA, flow cytometry); format: cell-based; settings: 293T cells expressing human BTLA preincubated with peptide 5 mg/mL, 1 h, 4 °C in PBS, then HVEM-Fc 8 μg/mL and AF647 anti-human IgG
T2 construct: Krummenacher, University of Pennsylvania; host or cells: 293T
Experimental: Figure 7 HVEM (14–39) peptide blocks BTLA/HVEM binding. 293T cells expressing human BTLA were incubated with peptides (5 mg/mL) prior to labeling with HVEM-Fc and AF647-conjugated anti-human IgG antibody. The blocking capacity of the HVEM (14–39) peptide was first compared to (A) a scrambled (Ac-[…]-NH2) peptide or (B) to variant peptides (Table S2).
Cells (293T) expressing BTLA (a generous gift from Dr. C. Krummenacher, University of Pennsylvania, USA) were maintained in culture with RPMI 10% FCS supplemented with 0.2 mg/mL hygromycin B. The cells (2 × 10^5) were incubated with HVEM-Fc (at 8 μg/mL in PBS containing 0.5% BSA) for 30 min at 4 °C. The cells were then washed and incubated with goat anti-human Fc conjugated with AF647 for 20 min at 4 °C in PBS containing 0.5% BSA (Jackson ImmunoResearch, #109–606–170). Inhibition of BTLA/HVEM binding by different peptides was assessed after preincubating the cells with different concentrations of the peptide (5, 1, and 0.1 mg/mL) for 1 h at 4 °C in PBS. After washing in PBS, the cells were stained for 20 min at 4 °C with an amine reactive dye (aqua live/dead stain kit, from Life Technologies, L34957) for dead cell exclusion. BTLA expression was controlled by anti-BTLA APC-conjugated antibody (Biolegend, #344510). Maximum inhibition of binding was determined by adding anti-BTLA7.1 antibody (2 μg/mL) for 1 h at 4 °C, before adding HVEM-Fc. Sample acquisition was performed on a Gallios Flow Cytometer (Beckman Coulter), and data were analyzed using FlowJo Software (TreeStar).

[3] = molecular target: HVEM 1-103 (Homo sapiens) (UniProt Q92956); test: SPR; settings: cited from earlier work
BTLA = settings: SPR, HVEM protein binding to BTLA; unit not given; cited from earlier work
Excerpt: Table 1 Rate constants: k1, k−1 and KD for the BTLA/HVEM and BTLA/HVEM (14–39) complexes determined using SPR and molecular dynamics simulation. […] SPR provided more accurate data. […] KD and affinity are inversely related, which means that the lower the KD value, the higher the affinity of the molecules. The HVEM (14–39) peptide binds and d ...

[4] = molecular target: T3, Recombinant human BTLA-Fc (human, UniProt Q7Z6A9 31-157); test: affinity chromatography on a microcolumn, fractions read by MALDI-TOF MS; BTLA-Fc immobilised in a microcolumn; peptide incubated, excess removed, complex dissociated; supernatant, last wash and elution analysed by mass spectrometry; settings: both partners purified
T3 construct: also called BTLA-Fc protein; immobilized BTLA protein; source: gift from Prof; D. Olive (recombinant)
T3 sequence (looked up): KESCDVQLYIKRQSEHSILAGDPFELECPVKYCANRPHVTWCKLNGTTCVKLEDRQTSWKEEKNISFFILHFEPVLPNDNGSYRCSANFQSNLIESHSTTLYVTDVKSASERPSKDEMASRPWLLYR

T2 sequence (Q7Z6A9 31-289): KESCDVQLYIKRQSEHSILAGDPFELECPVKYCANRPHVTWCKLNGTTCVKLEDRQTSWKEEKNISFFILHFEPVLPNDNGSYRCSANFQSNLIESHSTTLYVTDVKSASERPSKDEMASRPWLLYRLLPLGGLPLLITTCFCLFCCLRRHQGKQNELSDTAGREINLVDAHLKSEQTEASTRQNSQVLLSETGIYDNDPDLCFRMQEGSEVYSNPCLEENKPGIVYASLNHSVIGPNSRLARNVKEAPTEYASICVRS
HVEM 1-103 (Homo sapiens), sequence (Q92956 1-103): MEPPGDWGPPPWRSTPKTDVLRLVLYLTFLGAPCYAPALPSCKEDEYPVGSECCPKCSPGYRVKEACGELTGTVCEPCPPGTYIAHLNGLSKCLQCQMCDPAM

## CC(=O)N[C@@H](CCC(=O)O)C(=O)N[C@@H](CO)C(=O)N[C@H]1CSSC[C@@H]2NC(=O)[C@H](C)NC(=O)[C@H](CCC(=O)O)NC(=O)[C@H](CCCCN)NC(=O)[C@H](C(C)C)NC(=O)[C@H](CCCNC(=N)N)NC(=O)[C@H](Cc3ccc(O)cc3)NC(=O)CNC(=O)[C@@H]3CCCN3C(=O)[C@H](CO)NC(=O)[C@H](CSSC[C@@H](C(=O)N[C@@H](CCC(=O)O)C(=O)N3CCC[C@H]3C(N)=O)NC(=O)[C@H](C(C)C)NC(=O)[C@H]([C@@H](C)O)NC(=O)CNC(=O)[C@H]([C@@H](C)O)NC(=O)[C@H](CC(C)C)NC(=O)[C@H](CCC(=O)O)NC(=O)CNC2=O)NC(=O)[C@H](CCCCN)NC(=O)[C@@H]2CCCN2C1=O [HVEM (14–39)] (Ac-ESCPKCSPGYRVKEACGELTGTVCEP-NH2; disulfide 3-16, 6-24)
BTLA protein; SPR Biacore T200, peptide extended by five Gly and biotin at N-terminus on streptavidin chip SA (~1100 RU), BTLA 0-15 µM, HBS-EP pH 7.4, mean of four measurements, read-out: k1, association rate constant
  kon: 76400 M⁻¹ s⁻¹
BTLA protein; SPR, Table S1 measurement No 1
  Kd: 13 nM
BTLA protein; SPR, Table S1 measurement No 2
  Kd: 149 nM
BTLA protein; SPR, Table S1 measurement No 3
  Kd: 217 nM
BTLA protein; SPR, Table S1 measurement No 4
  Kd: 30.6 nM
BTLA protein; SPR, biotin-Gly5 peptide on streptavidin chip, BTLA 0-15 µM, HBS-EP pH 7.4, mean of four measurements
  Kd: 102 nM
BTLA protein; SPR, biotin-Gly5 peptide on streptavidin chip, BTLA 0-15 µM, HBS-EP pH 7.4, mean of four measurements, read-out: k−1, dissociation rate constant
  koff: 0.00332 s⁻¹
[1]
  cell death of PBMC: did not find any significant increase in cell death
293T cells
  toxicity on 293T cells: did not observe any toxicity

## CC(=O)N[C@@H](CCC(=O)O)C(=O)N[C@@H](CO)C(=O)N[C@H]1CSSC[C@@H](C(=O)N[C@@H](CO)C(=O)N2CCC[C@H]2C(=O)NCC(=O)N[C@@H](Cc2ccc(O)cc2)C(=O)N[C@@H](CCCNC(=N)N)C(=O)N[C@H](C(=O)N[C@@H](CCCCN)C(=O)N[C@@H](CCC(=O)O)C(=O)N[C@@H](C)C(=O)N[C@H]2CSSC[C@@H](C(=O)N[C@@H](CCC(=O)O)C(=O)N3CCC[C@H]3C(N)=O)NC(=O)[C@H](C(C)C)NC(=O)[C@H]([C@@H](C)O)NC(=O)CNC(=O)[C@H]([C@@H](C)O)NC(=O)[C@H](CC(C)C)NC(=O)[C@H](CCC(=O)O)NC(=O)CNC2=O)C(C)C)NC(=O)[C@H](CCCCN)NC(=O)[C@@H]2CCCN2C1=O [HVEM (14–39)^C16–C19, ^C29–C37] (Ac-ESCPKCSPGYRVKEACGELTGTVCEP-NH2; disulfide 3-6, 16-24)
[2]
  blocking of HVEM-Fc binding to BTLA (geometric fluorescence intensity, GMFI): slight decrease in the blocking capacity

## CC(=O)N[C@@H](CCC(=O)O)C(=O)N[C@@H](CO)C(=O)N[C@H]1CSSC[C@@H](C(=O)N[C@@H](CCC(=O)O)C(=O)N2CCC[C@H]2C(N)=O)NC(=O)[C@H](C(C)C)NC(=O)[C@H]([C@@H](C)O)NC(=O)CNC(=O)[C@H]([C@@H](C)O)NC(=O)[C@H](CC(C)C)NC(=O)[C@H](CCC(=O)O)NC(=O)CNC(=O)[C@@H]2CSSC[C@H](NC(=O)[C@H](CCCCN)NC(=O)[C@@H]3CCCN3C1=O)C(=O)N[C@@H](CO)C(=O)N1CCC[C@H]1C(=O)NCC(=O)N[C@@H](Cc1ccc(O)cc1)C(=O)N[C@@H](CCCNC(=N)N)C(=O)N[C@@H](C(C)C)C(=O)N[C@@H](CCCCN)C(=O)N[C@@H](CCC(=O)O)C(=O)N[C@@H](C)C(=O)N2 [HVEM (14–39)^C16–C37, ^C19–C29] (Ac-ESCPKCSPGYRVKEACGELTGTVCEP-NH2; disulfide 3-24, 6-16)
[2]
  blocking of HVEM-Fc binding to BTLA (geometric fluorescence intensity, GMFI): slight decrease in the blocking capacity

## Ac-ESSPKSSPGYRVKEASGELTGTVSEP-NH2 [HVEM (14–39)^C16,19,29,37S]
[2]
  blocking of HVEM-Fc binding to BTLA (geometric fluorescence intensity, GMFI): blocking capacity was completely lost

## BTLA (from UniProt Q7Z6A9)
[3]
  Kd: 250 nM

B1: HVEM: herpes virus entry mediator, transmembrane glycoprotein of the TNFR superfamily, ligand of BTLA (protein)
chain: LPSCKEDEYPVGSECCPKCSPGYRVKEACGELTGTVCEPCPPGTYIAHLNGLSKCLQCQMCDPAMGLRASRNCSRTENAVCGCSPGHFCIVQDGDHCAACRAYATSSPGQRVQKGGTESQDTLCQNCPPGTFSPNGTLEECQHQTKCSWLVTKAGAGTSSSHWV
modifications: left off: Fc (detected with anti-human Fc/IgG), end not stated, kept
notes: herpes virus entry mediator, transmembrane glycoprotein of the TNFR superfamily, ligand of BTLA
BTLA
  k−1: 0.12

B2: HVEM (14–39) peptide (peptide, UniProt Q92956 52-77, looked up)
peptide: Ac-ESCPKCSPGYRVKEACGELTGTVCEP-NH2
modifications: disulfide 3-16, 6-24
notes: herpes virus entry mediator (HVEM), residues 14-39 of the numbering of the crystal structure PDB 2AW2, Cys15 replaced by serine; A C-terminal amide is likely (the scrambled peptide is printed as Ac-...-NH2); also called native HVEM (14–39) peptide; native peptide; source: synthetic peptide (solid-phase, Fmoc/tBu, RP-HPLC purified, disulfides formed stepwise)
[4]
  binding result: binds
